Reference: US20050267020A1, “Polypeptides derived from inducible hsp70 and pharmaceutical compositions containing the same” (priority 2001, published 2005)

Assays:
HLA-A*0201 = target: T1, HLA-A*0201 (Homo sapiens, UniProt P04439, D140Y/D185E/D98H/E176V/E277Q/G131W/G231S/I119V/I121R/I166T/I218V/L300P/L318F/N151K/N90K/P208A/P217A/Q86G/Q94H/R138H/R169H/T345S); experiment: Measurement of peptide relative affinity to HLA-A*0201 on T2 cells; type: binding; details: HLA-A*0201, T2 cells; ratio to reference peptide HIVpol 589; the lower the RA-value, the stronger the binding
T1 construct: Tap−/− cells expressing the studied HLA-class I molecule; endogenous in cells; host or cells: T2 cells (Tap-/-, HLA-A*0201)
Experimental: Measurement of Peptide Relative Affinity to HLA class I. Tap−/− cells expressing the studied HLA-class I molecule (3×10^5 cells/mL) were incubated with various concentrations of peptides ranging from 100 μM to 0.1 μM in serum-free RPMI 1640 medium supplemented with 100 ng/ml of human β-2m at 37° C. for 16 hours. Cells were then washed twice and stained with the specific anti-class I mAb followed by FITC conjugated goat anti mouse Ig mAb to quantify the expression of HLA-A*0201. For each peptide concentration, the HLA-specific staining was calculated as the % of the staining obtained with 100 μM of the reference peptide. The relative affinity (RA) is determined as: RA=(Concentration of each peptide that induces 20% of HLA expression/Concentration of the reference peptide that induces 20% of HLA expression). The lower the RA-value, the stronger is the peptide binding to HLA. The mean RA value for each peptide is determined from at least three independent experiments. […]
(§1) The affinity of each peptide was assayed experimentally by determination of the Relative Affinity: the necessary peptide dose to stabilise a reference quantity of HLA-A*0201 molecules at the surface of T2 cells; and the stability of each peptide was assayed by determination of the half-life of the peptide/HLA-A*0201 molecule complex (DC50: dissociation complex 50).

human CD8+ cells = experiment: Generation of CTL from human PBMC with peptide- or polyepitope-pulsed dendritic cells, intracellular IFN-γ staining; type: cell-based; details: human PBMC; multiple restimulations of CD8+ cells; T2 cells loaded with p380, p391 or p393
Experimental: The three graphs entitled hCTL380, hCTL391 and hCTL393 represent respectively the testing of p380, p391 and p393-specific human CTLs. P391 and p393 specific CTLs were tested towards EBV-B cells, whereas p380 specific CTLs were tested towards T2 cells. The number of IFN-γ producing CD8+ cells for 10^5 CD8+ cells upon activation, indicated on the X-axis, was measured, as assessed by staining cells for CD8 and intracellular IFN-γ.
Polyepitope induced human CTL were tested for their capacity to respond to T2 cells loaded with p380, p391 or p393 or the irrelevant HIVpol589 peptides in intracellular IFN-γ staining. The X axis represents the number of IFNγ-producing CTL/10^5 CD8+ cells. On the Y axis, upper to lower bars represent the results obtained when cells were loaded respectively with irrelevant HIV pol589 peptides, or with p380, p391 or p393 peptides.
Generation of CTL from Human Peripheral Blood Mononuclear Cells (PBMC). Fresh PBMC collected from healthy donnors under informed consent were serologically typed for the studied HLA-class I molecule, and purified using standard Ficoll-Paque (Amersham Pharmacia Biotech AB). Dendritic cells (DC) were prepared by cultivating plastic adherent PBMC in the presence of 500 U/mL GM-CSF (R&D Systems Inc. MN) and 500 U/mL IL-4 (R&D Systems Inc. MN) for 7 days such as described in Keogh et al. (30).
DC were then maturated for 2 days with 2 μg/mL anti-CD40 antibody and 100 ng/mL Poly I:C (Sigma-Aldrich). […] Autologous CD8+ purified T-cells (CD8 MicroBeads, Miltneyi Biotec Inc. CA) were stimulated weekly with DC pulsed for two hours with peptide (10 μM) and irradiated at 35Gy at a T:DC ratio of 10:1 in culture medium (CM; RPMI 1640 supplemented with 10% human AB serum, […] L-glutamine and gentamycin). 1×10^3 U/mL IL-6 and SU/mL IL-12 (R&D Systems Inc. MN) were added during the first week of culture. 20 U/mL clinical grade IL-2 (Proleukin, Chiron Corp.) and 10 ng/mL IL-7 (R&D Systems Inc. MN) were added during the next two weeks of culture. 7 days after the last stimulation with DC, peptide specific IFN-γ secreting CD8+ T cells were magnetically sorted following encounter of the peptide presented by HLA-A*0201+ B-EBV cells (IFN-γ Secretion Assay, Miltenyi Biotec Inc. CA). The characterization of peptide-specific T cells was tested 7 days after the purification step.
Intracellular IFN-g Staining. 5×10^4 T cells were incubated with 10^5 stimulating peptide loaded EBV-B cells or with 10^5 tumor cells in the presence of 20 μg/ml brefeldin-A (Sigma, Oakville, Canada). Six hours later, they were washed, stained with r-phycoerythrin-conjugated anti-CD8 antibody (Caltag Laboratories, Burlingame, Calif.) in PBS for 25 min at 4° C., washed and fixed with 4% PFA. Then, cells were permeabilized with PBS 0.5% BSA 0.2% saponin (Sigma, Oakville, Canada), and stained with allophycocyanin-conjugated anti-IFNg mAb (PharMingen, Mississauga, Canada) for 25 min at 4° C. Cells were analyzed on FACSCalibur (Becton Dickinson, Mountain View, Calif.).

HHD mice = experiment: Vaccination of HHD mice, ex vivo IFN-γ ELISPOT assay; type: in vivo, mouse
Source text: Immune responses were monitored ex vivo in an IFN-γ Elispot assay. The X axis represents the percentage of immunized mice responding to the different epitopes.
The 8 graphs represent the immune responses obtained for each of the immunized mice with the 22-mer epitope. The X axis represents the number of IFN-γ producing CTLs for 10^5 ex vivo CD8+ cells upon activation. On the Y axis, the bars represent the respective level of IFN-γ producing CTLs against p391 or p393 peptide or against irrelevant HIV pol589 peptides.
Generation of CTL in HLA-transgenic mice. HLA-transgenic mice were injected subcutaneously at the base of the tail with 100 μg of peptide emulsified in incomplete Freund's adjuvant (IFA) in the presence of 140 μg of the I-A^b restricted HBVcore-derived T-helper epitope (128-140; sequence TPPAYRPPNAPIL). After 11 days, spleen cells (5×10^7 cells in 10 mL) were stimulated in vitro with peptide (10 μM). […]
ELISPOT Assay. The ELISPOT assay was used to quantify peptide epitope-specific, IFN-γ-releasing effector cells. […] The spots were counted using an automated image analysis system ELISPOT Reader (A/D Strassberg, Germany). The peptide-specific IFN-γ secreting cells frequency could be calculated from the numbers of spot-forming cells and from the CD8+ frequency in the studied lymphocyte population, adressed by immunostaining with an anti-CD8 mAb (clone 3B5; Caltag Laboratories, CA).

[1] = target: T2, HLA-A*0201/peptide complex (Homo sapiens, UniProt P04439, D140Y/D185E/D98H/E176V/E277Q/G131W/G231S/I119V/I121R/I166T/I218V/L300P/L318F/N151K/N90K/P208A/P217A/Q86G/Q94H/R138H/R169H/T345S); experiment: Assessment of peptide/HLA class I complex stability (DC50); type: binding; details: half life (DC50) of the HLA-A*0201/peptide complex
T2 construct: Tap−/− cells expressing the studied HLA-class I molecule; endogenous in cells; host or cells: T2 cells (Tap-/-, HLA-A*0201)
Experimental: Assessment of Peptide/HLA class I Complex Stability. Tap−/− cells (10^6/mL) were incubated overnight with 100 μM of each peptide in serum-free RPMI 1640 medium supplemented with 100 ng/mL of […] at 37° C. Cells were then washed four times to remove free peptide, incubated with Brefeldin A (10 μg/mL) for 1 hour to block cell surface expression of newly synthesized HLA molecules, washed and incubated at 37° C. for 0, 2, 4 or 6 hours. Subsequently, cells were stained with the HLA specific mAb followed by FITC conjugated goat anti mouse Ig mAb. For each time point, peptide induced HLA expression was calculated as: Mean fluorescence of peptide preincubated cells—Mean fluorescence of cells treated in similar conditions in the absence of peptide. DC50 (dissociation complex; DC) was defined as the time required for the loss of 50% of the HLA-A*0201/peptide complexes stabilized at t=0.
as §1

For LIGRKFGDPV [HSP 73], the Relative affinity (HLA-A*0201) was >20.

With “LMGDKSENVQDLLLLDVAPLSL [22-mer polyepitope]” the “specificity of human CTL lines induced with pulsed dendritic cells” value (human CD8+ cells) was “showed specificity towards all three Hsp70 epitopes”, the “mice responding after vaccination” value (HHD mice) was “induced responses in most mice” and the “epitopes against which immune responses were raised after vaccination” value (HHD mice; HSP380, HSP391, HSP393 epitopes) was “induced immune responses against all three Hsp70 epitopes”.

In the case of SLFEGIDFYT [HSP 286], the “Stability (hrs)” value [1] is reported as >6 h hrs.
